Data taken from the Kinase Knowledgebase extract (Sharma et al. 2016).

molecular target: MAPK14 (UniProt Q16539); test: Inhibition of MAPK14 Kinase Activity
Sequence (Q16539 whole entry, looked up): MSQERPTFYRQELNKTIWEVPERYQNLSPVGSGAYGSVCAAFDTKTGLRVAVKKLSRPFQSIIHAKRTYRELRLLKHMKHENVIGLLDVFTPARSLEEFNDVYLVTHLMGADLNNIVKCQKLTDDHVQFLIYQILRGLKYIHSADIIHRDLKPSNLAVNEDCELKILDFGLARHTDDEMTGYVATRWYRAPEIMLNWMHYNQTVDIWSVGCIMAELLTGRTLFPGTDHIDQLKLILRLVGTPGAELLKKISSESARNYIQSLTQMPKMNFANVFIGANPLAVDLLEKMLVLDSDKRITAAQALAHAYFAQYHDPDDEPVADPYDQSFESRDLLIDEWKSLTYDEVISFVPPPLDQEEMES

IC50, ≤ 5 µM:
CC(C)S(=O)(=O)n1c(N)nc2ccc(-c3c(-c4ccccc4)ncn3Cc3ccncc3)cc21
Cc1nc(-c2ccc3nc(N)n(S(=O)(=O)C(C)C)c3c2)c(-c2ccc(F)cc2F)[nH]1
CC(C)S(=O)(=O)n1c(N)nc2ccc(-c3c(-c4ccccc4)nc(-c4c(F)cccc4F)n3C)cc21
CC(C)S(=O)(=O)n1c(N)nc2ccc(-c3c(-c4ccccc4)ncn3Cc3ccccc3F)cc21
CC(C)S(=O)(=O)n1c(N)nc2ccc(-c3nc(C4CCNCC4)[nH]c3-c3ccc(F)cc3)cc21
CC(C)S(=O)(=O)n1c(N)nc2ccc(-c3c(-c4ccccc4)ncn3C3CC3)cc21
CC(C)S(=O)(=O)n1c(N)nc2ccc(-c3c(-c4cccc(F)c4F)ncn3[C@H]3CC[C@H](O)CC3)cc21
CC(C)S(=O)(=O)n1c(N)nc2ccc(-c3nc(-c4ccccc4SC(F)(F)F)[nH]c3-c3ccccc3)cc21
CC(C)S(=O)(=O)n1c(N)nc2ccc(-c3nc(-c4cc(F)cc(F)c4)[nH]c3-c3ccccc3)cc21
CC(C)S(=O)(=O)n1c(N)nc2ccc(-c3c(-c4ccc(F)cc4)ncn3C3CCCCC3)cc21
Nc1nc2ccc(-c3nc(-c4c(F)cccc4F)[nH]c3-c3ccccc3)cc2n1S(=O)(=O)C1CCCC1
CC(C)S(=O)(=O)n1c(N)nc2ccc(-c3c(-c4ccccc4)ncn3Cc3cccc(F)c3)cc21
Nc1nc2ccc(-c3nc[nH]c3-c3ccccc3)cc2s1
Cc1ccccc1-c1nc(-c2ccc3nc(N)n(S(=O)(=O)C(C)C)c3c2)c(-c2ccccc2)[nH]1
CC(C)S(=O)(=O)n1c(N)nc2ccc(-c3nc(-c4cc(F)ccc4F)[nH]c3-c3ccccc3)cc21
CC(C)S(=O)(=O)n1c(N)nc2ccc(-c3c(-c4ccc(F)cc4)ncn3C3CCN(C(=O)OC(C)(C)C)CC3)cc21
CC(C)S(=O)(=O)n1c(N)nc2ccc(-c3c(-c4ccccc4)ncn3Cc3ccccn3)cc21
CC(C)S(=O)(=O)n1c(N)nc2ccc(-c3nc(C4CCOCC4)[nH]c3-c3ccccc3)cc21
CCc1ccc(-c2nc(-c3ccc4nc(N)n(S(=O)(=O)C(C)C)c4c3)c(-c3ccccc3)[nH]2)s1
CC(C)S(=O)(=O)n1c(N)nc2ccc(-c3nc(C(C)(C)C)[nH]c3-c3ccc(F)cc3)cc21
CCN(CC)CCOc1cccc(-c2nc(-c3ccc4nc(N)n(S(=O)(=O)C(C)C)c4c3)c(-c3ccccc3)[nH]2)c1
CC(C)S(=O)(=O)n1c(N)nc2ccc(-c3nc(-c4c(F)cccc4F)[nH]c3-c3ccccc3)cc21
COc1ccc(Cn2cnc(-c3ccccc3)c2-c2ccc3nc(N)n(S(=O)(=O)C(C)C)c3c2)cc1
COCCn1cnc(-c2ccccc2)c1-c1ccc2nc(N)n(S(=O)(=O)C(C)C)c2c1
CC(C)S(=O)(=O)n1c(N)nc2ccc(-c3nc(-c4cccc(C(F)(F)F)c4)[nH]c3-c3ccccc3)cc21
CC(C)S(=O)(=O)n1c(N)nc2ccc(-c3nc(C=O)[nH]c3-c3ccccc3)cc21
CC(C)S(=O)(=O)n1c(N)nc2ccc(-c3c(-c4ccccc4)nc4n3CCCC4)cc21
CC(C)S(=O)(=O)n1c(N)nc2ccc(-c3nc(CN(C)C)[nH]c3-c3ccccc3)cc21
CC(C)S(=O)(=O)n1c(N)nc2ccc(-c3c(-c4ccccc4)ncn3C3CCC(O)CC3)cc21 (centres undefined)
CC(C)S(=O)(=O)n1c(N)nc2ccc(-c3c(C#N)cnn3-c3ccccc3)cc21
CC(C)S(=O)(=O)n1c(N)nc2ccc(-c3nc(-c4ncc[nH]4)[nH]c3-c3ccccc3)cc21
CC(C)S(=O)(=O)n1c(N)nc2ccc(-c3c(-c4ccccc4)ncn3[C@@H](C)CO)cc21
CC(C)S(=O)(=O)n1c(N)nc2ccc(-c3nc(-c4ccc(N(C)C)cc4)[nH]c3-c3ccccc3)cc21
CC(C)S(=O)(=O)n1c(N)nc2ccc(-c3nc(CC(C)(C)C)[nH]c3-c3ccc(F)cc3)cc21
CC(C)S(=O)(=O)n1c(N)nc2ccc(-c3c(-c4ccccc4)ncn3CCNC(=O)OC(C)(C)C)cc21
CC(C)S(=O)(=O)n1c(CCN)nc2ccc(-c3nc(-c4c(F)cccc4F)[nH]c3-c3ccccc3)cc21
CC(C)S(=O)(=O)n1c(N)nc2ccc(-c3nc(C4CCN(C)CC4)[nH]c3-c3ccccc3)cc21
COc1ccc(C2N=C3C(C)=CC=CN3C2c2ccc3nc(N)n(S(=O)(=O)C(C)C)c3c2)cc1 (centres undefined)
Cc1ccc(-c2nc(-c3ccc4nc(N)n(S(=O)(=O)C(C)C)c4c3)c(-c3ccccc3)[nH]2)cc1
CC(C)S(=O)(=O)n1c(N)nc2ccc(-c3nc(-c4c(F)cccc4F)[nH]c3-c3ccc(F)cc3)cc21
CC(C)S(=O)(=O)n1c(N)nc2ccc(-c3c(-c4ccc(F)cc4)nc4n3CCC4)cc21
CC(C)S(=O)(=O)n1c(N)nc2ccc(-c3nc(-c4cccnc4)[nH]c3-c3ccccc3)cc21
CC(C)N1CCC(n2cnc(-c3ccccc3)c2-c2ccc3nc(N)n(S(=O)(=O)C(C)C)c3c2)CC1
CC(C)S(=O)(=O)n1c(N)nc2ccc(-c3nc(-c4ccc(N)cc4F)[nH]c3-c3ccccc3)cc21
COc1ccc(Cn2cnc(-c3ccccc3)c2-c2ccc3ncn(S(=O)(=O)C(C)C)c3c2)cc1
CC(C)S(=O)(=O)n1c(N)nc2ccc(-c3nc(-c4ccc([N+](=O)[O-])cc4F)[nH]c3-c3ccccc3)cc21
CC(C)S(=O)(=O)n1c(N)nc2ccc(-c3c(-c4ccccc4)ncn3[C@H](C)CO)cc21
CC(C)S(=O)(=O)n1c(N)nc2ccc(-c3c(-c4ccccc4)ncn3[C@@H]3CCCC[C@H]3CO)cc21
CC(=O)Nc1ccc(-c2nc(-c3ccc4nc(N)n(S(=O)(=O)C(C)C)c4c3)c(-c3ccccc3)[nH]2)cc1
Clc1nc2ccc(-c3c(-c4ccccc4)ncn3C3CCCCC3)cc2s1
Cc1nc(-c2ccc3nc(N)n(S(=O)(=O)C(C)C)c3c2)c(-c2ccc(F)cc2)[nH]1
CC(C)S(=O)(=O)n1c(N)nc2ccc(-c3c(-c4ccccc4)ncn3[C@H](CO)CC3CCCCC3)cc21
CC(C)S(=O)(=O)n1c(N)nc2ccc(-c3nc(-c4ccc(OCCCN(C)C)c(F)c4)[nH]c3-c3ccccc3)cc21
CC(C)S(=O)(=O)n1c(N)nc2ccc(-c3c(-c4ccccc4)nc4n3CCC4)cc21
CC(C)S(=O)(=O)n1c(N)nc2ccc(-c3c(-c4ccccc4F)nc(C#CCCO)n3C3CC3)cc21
CC(C)S(=O)(=O)n1c(N)nc2ccc(-c3c(-c4cccc(F)c4)ncn3C3CC3)cc21
CC(C)S(=O)(=O)n1c(N)nc2ccc(-c3nc(-c4cccs4)n(C)c3-c3ccccc3)cc21
CC(C)S(=O)(=O)n1c(N)nc2ccc(-c3nc(C4CCN(Cc5nccn5C)CC4)[nH]c3-c3ccccc3)cc21
CC(C)S(=O)(=O)n1c(N)nc2ccc(-c3c(-c4ccccc4)nn4c3CCC4)cc21
CC(C)S(=O)(=O)n1c(N)nc2ccc(-c3nc(C4CCOCC4)[nH]c3-c3ccc(F)cc3)cc21
CC(C)S(=O)(=O)n1c(N)nc2ccc(-c3nc(-c4cccs4)[nH]c3-c3ccc(C(F)(F)F)cc3)cc21
CC(C)S(=O)(=O)n1c(N)nc2ccc(-c3nc(-c4ccc(N5CCCC5)cc4)[nH]c3-c3ccccc3)cc21
CC(C)S(=O)(=O)n1c(N)nc2ccc(-c3nc(-c4ccc(Cl)cc4F)[nH]c3-c3ccccc3)cc21
CC(C)S(=O)(=O)n1c(N)nc2ccc(-c3c(-c4ccccc4)ncn3C3CCC4(CC3)OCCO4)cc21
CC(C)S(=O)(=O)n1c(N)nc2ccc(-c3c(-c4ccc(F)cc4)ncn3C)cc21
CC(C)S(=O)(=O)n1c(N)nc2ccc(-c3nc(-c4ccc(S(C)(=O)=O)cc4)[nH]c3-c3ccccc3)cc21
CC(C)S(=O)(=O)n1c(N)nc2ccc(-c3c(-c4ccccc4)ncn3C3CCCC3)cc21
CCNc1ccc(-c2nc(-c3ccc4nc(N)n(S(=O)(=O)C(C)C)c4c3)c(-c3ccccc3)[nH]2)cc1
CC(C)S(=O)(=O)n1c(N)nc2ccc(-c3nc(-c4cccc(OCCN5CCOCC5)c4)[nH]c3-c3ccccc3)cc21
CC(C)S(=O)(=O)n1c(N)nc2ccc(-c3nc(-c4ccc(F)cc4F)[nH]c3-c3ccccc3)cc21
CC(C)S(=O)(=O)n1c(N)nc2ccc(-c3c(-c4ccc(F)cc4)ncn3[C@H]3CC[C@H](O)CC3)cc21
CC(C)S(=O)(=O)n1c(N)nc2ccc(-c3c(-c4ccccc4)ncn3C3CCN(C(=O)OC(C)(C)C)CC3)cc21
CC(C)S(=O)(=O)n1c(N)nc2ccc(-c3nc(-c4cccc(OCCN(C)C)c4)[nH]c3-c3ccccc3)cc21
CC(C)S(=O)(=O)n1c(N)nc2ccc(-c3nc(C4CCN(C(=O)OC(C)(C)C)CC4)[nH]c3-c3ccc(F)cc3)cc21
CC(C)S(=O)(=O)n1c(N)nc2ccc(-c3c(-c4ccccc4F)nc(C#C[Si](C)(C)C)n3C3CC3)cc21
CC(C)S(=O)(=O)n1c(N)nc2ccc(-c3nc(-c4ccc(C(F)(F)F)cc4)[nH]c3-c3ccccc3)cc21
CC(C)S(=O)(=O)n1c(N)nc2ccc(-c3nc(-c4cccc(OCCN5CCCC5)c4)[nH]c3-c3ccccc3)cc21
CC(C)S(=O)(=O)n1c(N)nc2ccc(-c3c(-c4ccccc4)ncn3CCN3CCOCC3)cc21
CCn1cnc(-c2ccc(F)cc2)c1-c1ccc2nc(N)n(S(=O)(=O)C(C)C)c2c1
CC(C)S(=O)(=O)n1c(N)nc2ccc(-c3nc(-c4ccccc4N4CCOCC4)[nH]c3-c3ccccc3)cc21
CC(C)S(=O)(=O)n1c(N)nc2ccc(-c3nc(CN4CCCCC4)[nH]c3-c3ccccc3)cc21
CC(C)S(=O)(=O)n1c(N)nc2ccc(-c3nc(-c4ccc(OCCN5CCCCC5)cc4)[nH]c3-c3ccccc3)cc21
CC(C)S(=O)(=O)n1c(N)nc2ccc(-c3cc(C(C)(C)C)nn3-c3ccccc3)cc21
NCCc1nc2ccc(-c3c(-c4ccccc4)ncn3C3CCCCC3)cc2s1
